Assays:
rat M2 mAChR = biological target: T1, rat M2 mAChR (Rattus norvegicus, UniProt P10980); assay: ACh-stimulated [35S]GTPγS binding in CHO-rM2 cell membranes; assay type: biochemical; settings: rM2, [35S]GTPγS binding
T1 construct: host or cells: FlpIn CHO cells (Invitrogen)
T1 sequence (P10980 1-466): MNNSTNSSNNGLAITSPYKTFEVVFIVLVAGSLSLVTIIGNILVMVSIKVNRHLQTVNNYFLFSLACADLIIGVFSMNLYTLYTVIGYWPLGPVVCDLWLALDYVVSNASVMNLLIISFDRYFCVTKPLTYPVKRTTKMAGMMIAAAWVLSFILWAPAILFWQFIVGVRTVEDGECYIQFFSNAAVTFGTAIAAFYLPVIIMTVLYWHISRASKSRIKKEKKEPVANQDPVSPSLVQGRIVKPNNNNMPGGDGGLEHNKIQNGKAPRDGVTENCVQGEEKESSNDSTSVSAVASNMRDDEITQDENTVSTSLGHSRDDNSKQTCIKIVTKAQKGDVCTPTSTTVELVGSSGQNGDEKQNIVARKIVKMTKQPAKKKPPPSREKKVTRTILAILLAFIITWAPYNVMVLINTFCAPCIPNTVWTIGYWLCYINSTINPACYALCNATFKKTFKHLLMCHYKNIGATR
Protocol: (§1) [^3H]NMS equilibrium binding assays in CHO-rM1 to CHO-rM5 cells were performed as previously described for CHO-hM5 cells. For [^35S]GTPγS binding, CHO-rM2 and CHO-rM4 cell membranes were prepared as described in Supplementary information. Membrane [^35S]GTPγS binding was performed as described in ref [26]., except GDP and [^35S]GTPγS concentrations were 1 μM and 0.3 nM, respectively. [^3H](+)-pentazocine binding was performed as described in ref. [27].

hM5 mAChR [1] = settings: same assay; cited from earlier work
[2] = tested on: ethanol-preferring (iP) rats; assay: Operant sucrose self-administration, oral dosing; assay type: in vivo, rat; settings: 30 mg/kg p.o. x3
Excerpt: A separate cohort of rats were trained to self-administer sucrose (0.05–1% w/v). Rats underwent an identical dosing regimen of vehicle or ML375 before testing.

rat M1 mAChR = biological target: T2, rat M1 mAChR (Rattus norvegicus, UniProt P08482); assay: [3H]NMS equilibrium binding in whole CHO-rM1 cells; settings: rM1, [3H]NMS binding
T2 construct: host or cells: FlpIn CHO cells (Invitrogen)
T2 sequence (P08482 1-460): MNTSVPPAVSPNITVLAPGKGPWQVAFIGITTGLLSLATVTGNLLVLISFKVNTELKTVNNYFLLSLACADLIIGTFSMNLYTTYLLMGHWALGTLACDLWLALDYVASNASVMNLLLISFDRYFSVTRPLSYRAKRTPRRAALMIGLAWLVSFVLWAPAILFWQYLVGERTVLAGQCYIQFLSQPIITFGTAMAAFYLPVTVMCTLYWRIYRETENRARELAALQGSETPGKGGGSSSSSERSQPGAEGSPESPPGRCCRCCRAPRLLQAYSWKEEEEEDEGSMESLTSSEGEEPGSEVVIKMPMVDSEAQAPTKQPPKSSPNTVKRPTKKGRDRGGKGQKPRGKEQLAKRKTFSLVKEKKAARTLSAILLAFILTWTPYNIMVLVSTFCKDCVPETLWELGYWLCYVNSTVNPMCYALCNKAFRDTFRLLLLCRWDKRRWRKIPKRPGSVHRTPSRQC
Protocol: Rat mAChR subtypes (rM1–rM5; Origene) and human cannabinoid 1 receptor (hCB1; ref. [24]) constructs were isogenically integrated into FlpIn CHO cells (Invitrogen) and cells were selected in the presence of […] hygromycin B at 37 °C, 5% CO2, as previously described for the human M1 mAChR [25]. All cells were sub-cultured and seeded as previously described for the CHO-hM5 cells.
as §1

hM5 mAChR [3] = settings: cited from earlier work
σ1 receptor = biological target: T3, σ1 receptor (Mus musculus, UniProt O55242); assay: [3H](+)-pentazocine binding in mouse brain homogenates; settings: ML375 at concentrations up to 10 μM
T3 construct: from tissue; host or cells: mouse brain homogenates
Protocol: as §1
Sigma-1 data are expressed as a percentage of specific [^3H]-(+)-pentazocine binding; ERK1/2 phosphorylation data are expressed percentage of the response to 10% FBS. Data represent the mean ± S.E.M. of 5-7 independent experiments performed in duplicate or triplicate.

T3 sequence (O55242 whole entry): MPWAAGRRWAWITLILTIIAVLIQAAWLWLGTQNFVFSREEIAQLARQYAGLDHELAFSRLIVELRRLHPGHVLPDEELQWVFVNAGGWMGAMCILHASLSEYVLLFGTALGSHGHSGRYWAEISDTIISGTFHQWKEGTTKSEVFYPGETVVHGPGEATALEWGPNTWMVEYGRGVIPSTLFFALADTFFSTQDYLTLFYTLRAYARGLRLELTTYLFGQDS

SMILES: O=C(c1ccc(F)c(F)c1)N1CCN2C(=O)c3ccccc3[C@@]12c1ccc(Cl)cc1 [ML375, (S)-9b-(4-chlorophenyl)-1-(3,4-difluorobenzoyl)-2,3-dihydro-1H-imidazo[2,1-a]isoi ndol-5(9bH)-one]
- effect on ACh potency (rat M2 mAChR): no significant effects
- binding affinity pKB (hM5 mAChR [1]): 6.87
- cooperativity with ACh binding, Log α (hM5 mAChR [1]): −1.37
- sucrose responding vs vehicle ([2]; sucrose 0.05–1% w/v, P = 0.96): did not alter sucrose responding
- water responding vs vehicle ([2]; sucrose-trained rats, P = 1.0): no difference
- effect on ACh affinity (rat M1 mAChR): no significant effects
- functional affinity pKB (hM5 mAChR [3]): 6.22
- effect on [3H](+)-pentazocine binding (σ1 receptor): no apparent effect

— publication PMC5983544, “Muscarinic M5 receptors modulate ethanol seeking in rats” (Neuropsychopharmacology, 2018)
